Source: patent publication US20070160725A1, “Use of extracts and compounds of allium-genus plants as preservatives in the food and agri-food industries” (MOUSALA, S., L., priority 2004, published 2007)

Tests used:
Coliforms = experiment: microbiological quality of treated hamburgers and fresh sausage: coliform count (MPN)
Protocol: (§1) The tests were conducted on meat products such as hamburgers and fresh sausage at different doses, with and without the usual preservatives (sulfites).
(§2) Each sample is prepared in quintuplicate and microbiological quality control over time is conducted, a triplicate of each sample being performed.
The method used to detect lactose-positive enterobacteria (coliforms) is based on its capacity to ferment lactose with the production of acid and gas in the presence of bile salts.
To that end a count was performed in liquid medium to determine a MPN on Brilliant Green Bile Lactose Broth (Merck Brila Broth).
Said Brilliant Broth is prepared in a test tube rack with 3 series of three tubes for each one of the samples to be analyzed. Each tube contains 10 ml of Brila Broth and 1 Durham tube.
1 mL of the dilution of the sample at 1:10 or (−1) is poured into each one of the tubes of the first series.
1 mL of the dilution of the sample at 1:100 or (−2) is poured into each one of the tubes of the second series.
1 mL of the dilution of the sample at 1:1000 or (−3) is poured into each one of the tubes of the third series.
The three series are incubated at 31±1° C., taking a reading at 24 and 48 hours.
The reaction is positive when gas discharge occurs inside the Durham tube, at least in 1/10 of its volume.
The Most Probable Number (MPN) table is used with the number of positive tubes in each series, and the data is extrapolated.
The result is finally expressed as the coliform count per gram of sample.
(§3) Two different raw meat products (sausages and hamburgers) treated with different allicin doses are prepared. • The used testing doses were: 25, 50 and 100 ppm.
(§4) Five samples of each product (hamburger and sausage) are prepared, each one of them being analyzed in triplicate.
(§5) The microbiological parameters analyzed were as follows: • Total mesophilic aerobes • Coliforms • Escherichia coli • Salmonella (presence/absence in 25 g) • Said parameters were analyzed at different times: • 0 days • 4 days • 7 days • The sample references resulted as follows: […]

Salmonella = experiment: microbiological quality of treated hamburgers and fresh sausage: Salmonella study
Protocol: as §1, §2
The systematic testing used consisted of three steps: • a) Pre-enrichment in non-selective liquid medium. • b) Enrichment in selective liquid medium. • c) Differential isolation on selective solid means. a) Non-Selective Pre-Enrichment
The medium of choice is buffered peptone water.
25 g of the product to be analyzed are aseptically weighed and diluted in 225 mL of buffered peptone water to obtain a 1:10 dilution. It is mixed well and taken to be incubated at 37° C. for 16-20 hours.
The pre-enrichment culture is stirred and 10 mL thereof are taken with a sterile pipette, seeding it onto 100 mL of selenite-cysteine broth (Merck), incubating it at 37° C. for 18-24 hours.
From the culture obtained in the selective liquid medium, selenite-cysteine broth, seeding is performed on the second dish, in duplicate and without overloading the loop, on xylose lysine deoxycholate (XLD, Merck) agar, Rambach agar (Merck), and SS agar (Merck).
All the seeded dishes are incubated in an oven at 37° C. for 24-48 hours.
The test is positive when typical colonies are detected in at least two of the four mediums, which are confirmed with supplementary biochemical tests.
as §3, §4, §5

[1] = hamburger, 25 ppm of allicin (H-1), t = 0 days
[2] = hamburger, 25 ppm of allicin (H-1), t = 4 days
[3] = hamburger, 50 ppm of allicin (H-2), t = 0 days
[4] = hamburger, 50 ppm of allicin (H-2), t = 4 days
[5] = hamburger, 100 ppm of allicin (H-3), t = 0 days
[6] = hamburger, 100 ppm of allicin (H-3), t = 4 days
[7] = sausage, 25 ppm of allicin (S-1), t = 0 days
[8] = sausage, 25 ppm of allicin (S-1), t = 4 days
[9] = sausage, 50 ppm of allicin (S-2), t = 0 days
[10] = sausage, 50 ppm of allicin (S-2), t = 4 days
[11] = sausage, 100 ppm of allicin (S-3), t = 0 days
[12] = sausage, 100 ppm of allicin (S-3), t = 4 days

Structure (SMILES): C=CCS[S+]([O-])CC=C (stereo not shown) [Allicin, allyl allylthiosulfinate]
- Coliforms (Coliforms; [1]): 150 cfu/g
- Coliforms (Coliforms; [2]): >2400 cfu/g
- Coliforms (Coliforms; [3]): 150 cfu/g
- Coliforms (Coliforms; [4]): 1100 cfu/g
- Coliforms (Coliforms; [5]): 150 cfu/g
- Coliforms (Coliforms; [6]): 150 cfu/g
- Coliforms (Coliforms; [7]): 3 cfu/g
- Coliforms (Coliforms; [8]): 21 cfu/g
- Coliforms (Coliforms; [9]): <3 cfu/g
- Coliforms (Coliforms; [10]): 7 cfu/g
- Coliforms (Coliforms; [11]): <3 cfu/g
- Coliforms (Coliforms; [12]): <3 cfu/g
- Salmonella growth (Salmonella; allicin doses of 50 and 100 ppm): able to inhibit Salmonella growth
- Salmonella (in 25 g) (Salmonella; [1]): presence
- Salmonella (in 25 g) (Salmonella; [2]): presence
- Salmonella (in 25 g) (Salmonella; [3]): presence
- Salmonella (in 25 g) (Salmonella; [4]): presence
- Salmonella (in 25 g) (Salmonella; [5]): presence
- Salmonella (in 25 g) (Salmonella; [6]): presence
- Salmonella (in 25 g) (Salmonella; [7]): absence
- Salmonella (in 25 g) (Salmonella; [8]): presence
- Salmonella (in 25 g) (Salmonella; [9]): absence
- Salmonella (in 25 g) (Salmonella; [10]): presence
- Salmonella (in 25 g) (Salmonella; [11]): absence
- Salmonella (in 25 g) (Salmonella; [12]): presence
